Results taken from patent US8106089B2, “Anti-tubulin acting arylpyrrol, arylfuran and arylthiophene derivatives, method for the preparation thereof and for the use thereof as an antimitotic” (Centre National de la Recherche, priority 2004, dated 2012).

Columns and labels:
Assay type in all cases: cell-based
B16 F1 cells = assay: MTT test, cell growth; conditions: Mus musculus, mean ± sd of 3 experiments in triplicate, read-out: IC50 (concentration that inhibits 50% of cell growth) ± sd
Source text: (§1) Aim: Given the role of tubulin in the formation of the mitotic spindle, we analyzed the effect of the compounds according to the present invention on the cell cycle of the following murine cells using various methods: the murine melanoma tumor cell line, the B16 F1 cell line and the mel a cell line (melanocytes), and the L1210 mouse leukemia cell line.
(§2) We initially evaluated the effect of compounds 17, 18 and 19 on the growth of the three cell lines by a “MTT” test. The principle of the MTT test consists of measuring the activity of mitochondrial succinate dehydrogenase in living cells. This enzyme transforms MTT (3-(4,5-dimethylthiazol-2-yl)-2,5-diphenyltetrazolium bromide), yellow in color, into insoluble purple formazan crystals. After dissolution of the crystals in dimethylsulfoxide (DMSO), absorbance is measured at 540 nm by spectrophotometry. The optical densities obtained are directly proportional to the number of living cells. The cytotoxic effect of a sample is evaluated by the percentage of living cells in the presence of this sample, compared to the cells treated with the solvent alone. This method makes it possible to measure the proportion of living cells in a given cell population. By comparison with untreated cells, we thus determined the concentration of each compound that induces a 50% inhibition of cell growth. The IC50 ranges from 50 μM to 100 μM.

[1] = tested on: L1210 mouse leukemia cells; assay: MTT test, cell growth; conditions: mean ± sd of 3 experiments in triplicate, read-out: IC50 (concentration that inhibits 50% of cell growth) ± sd
Source text: as §1, §2

mel a melanocytes = assay: MTT test, cell growth; conditions: Mus musculus, Melanocyte, mean ± sd of 3 experiments in triplicate, read-out: IC50 (concentration that inhibits 50% of cell growth) ± sd
Source text: as §1, §2

[2] = tested on: mouse leukemia (L1210) cells; assay: Cell cycle progression, flow cytometry after propidium iodide labeling; conditions: 24 hours
Description: (§3) In order to approach the mechanism of action of these compounds, we then studied their effect on the progression of the cell cycle in mouse melanoma (B16) cells and mouse leukemia (L1210) cells. For this purpose, we compared the distribution of the treated or untreated cells in each phase of the cycle. […] They then were fixed and made permeable with ethanol. After incubation with propidium iodide, which labels cellular DNA, the DNA content of the cells is then analyzed by flow cytometry.

[3] = tested on: mouse melanoma (B16) cells; assay: as above; conditions: for % of B16 cells in phase G1 / % of B16 cells in phase G2/M / % of B16 cells in phase S: 24 hours
Description: as §3

| SMILES | IC50 (B16 F1 cells) | IC50 [1] | IC50 (mel a melanocytes) | % of L1210 cells in phase G1 ([2]; 50 μM) | % of L1210 cells in phase G2/M ([2]; 50 μM) | % of L1210 cells in phase S ([2]; 50 μM) | % of B16 cells in phase G1 ([3]; 50 μM) | % of B16 cells in phase G2/M ([3]; 50 μM) | % of B16 cells in phase S ([3]; 50 μM) | % of B16 cells in phase G1 ([3]; 75 μM) | % of B16 cells in phase G2/M ([3]; 75 μM) | % of B16 cells in phase S ([3]; 75 μM) | % of L1210 cells in phase G1 ([2]; 40 μM) | % of L1210 cells in phase G2/M ([2]; 40 μM) | % of L1210 cells in phase S ([2]; 40 μM) | other results |
| --- | --- | --- | --- | --- | --- | --- | --- | --- | --- | --- | --- | --- | --- | --- | --- | --- |
| CC(C)c1cc(-c2ccccc2N)c(CCCO)[nH]1 [Compound 19, 3-[3-(2-Amino-phenyl)-5-isopropyl-1H-pyrrol-2-yl]-propan-1-ol] | 107 ± 1.8 µM | 17.7 ± 4.5 µM | 116 ± 3.2 µM | 49.5% | 24% | 26.5% | 78.7% | 5.2% | 14.1% | 56.1% | 31.9% | 2.8% | – | – | – | % of L1210 cells in phase G1 ([2]; 75 μM): 39.8%; % of L1210 cells in phase G2/M ([2]; 75 μM): 38.8%; % of L1210 cells in phase S ([2]; 75 μM): 21.4% |
| CC(C)c1cc(-c2ccccc2N)c(CCCO)n1C(=O)OC(C)(C)C [Compound 17, 3-(2-Amino-phenyl)-2-(3-hydroxy-propyl)-5-isopropyl-pyrrole-1-carboxylic acid tert-butyl ester] | 88.7 ± 7.6 µM | 53.7 ± 0.7 µM | 69.7 ± 0.9 µM | 39.2% | 43.6% | 17.2% | 58.0% | 25.4% | 16.6% | – | – | – | 54.9% | 23.2% | 21.9% | % of B16 cells in phase G1 ([3]; 70 μM): 40.8%; % of B16 cells in phase G2/M ([3]; 70 μM): 22.3%; % of B16 cells in phase S ([3]; 70 μM): 37%; % of B16 cells in phase G1 ([3]; 100 μM): 43.3%; % of B16 cells in phase G2/M ([3]; 100 μM): 16.5%; % of B16 cells in phase S ([3]; 100 μM): 40.3% |
| CC(C)c1cc(-c2ccccc2)c(CCCO)[nH]1 [Compound 18, 3-(5-Isopropyl-3-phenyl-1H-pyrrol-2-yl)-propan-1-ol] | 171 ± 10.8 µM | 33.2 ± 1.3 µM | – | – | – | – | – | – | – | 65.0% | 12.1% | 11.3% | 32.7% | 12.6% | 54.7% | % of L1210 cells in phase G1 ([2]; 55 μM): 30.9%; % of L1210 cells in phase G2/M ([2]; 55 μM): 21.9%; % of L1210 cells in phase S ([2]; 55 μM): 47.2%; % of B16 cells in phase G1 ([3]; 125 μM): 50.0%; % of B16 cells in phase G2/M ([3]; 125 μM): 32.0%; % of B16 cells in phase S ([3]; 125 μM): 5.2%; % of B16 cells in phase G1 ([3]; 150 μM): 42.1%; % of B16 cells in phase G2/M ([3]; 150 μM): 36.0%; % of B16 cells in phase S ([3]; 150 μM): 21.8% |
| CC(C)c1ccc(CCCO)[nH]1 [Compound 21, 3-(5-Isopropyl-1H-pyrrol-2-yl)-propan-1-ol] | > 400 µM | > 400 µM | – | – | – | – | – | – | – | – | – | – | – | – | – | – |
| CC(C)[C@@H](C=O)NC(=O)OC(C)(C)C [compound 2, (S)—N-(tert-Butoxycarbonyl)valinal] | – | – | – | – | – | – | – | – | – | – | – | – | – | – | – | higher proportion of cells in phase G2/M versus control ([3]; concentrations near IC50 or higher, cell line not stated): approximately 3 times |
